≈ marks a conversion by molar mass, not a printed value. Where two headings read alike, the source gives them in different places.
Legend:
[1] = tested on: draining lymph nodes of mice; settings: cited from earlier work
MUTZ-3 cells [2] = experiment: cytotoxicity by Propidium Iodide, relative viability (Rv90)
Method: A panel of chemicals consisting of 20 sensitizers and 20 non-sensitizers were used for cell stimulations. […] All chemicals were from Sigma-Aldrich, St. Louis, Mo., USA. Compounds were dissolved in either Dimethyl sulfoxide (DMSO) or distilled water. Prior to stimulations, the cytotoxicity of all compounds were monitored, using Propidium Iodide (PI) (BD Biosciences, San Diego, Calif.) using protocol provided by the manufacturer. The relative viability of stimulated cells was calculated as
For toxic compounds, the concentration yielding 90% relative viability (Rv90) was used. For untoxic compounds, a concentration of 500 μM was used when possible. For non-toxic compounds that were insoluble at 500 μM in medium, the highest soluble concentration was used. For compounds dissolved in DMSO, the in-well concentration was 0.1% DMSO.

CD86 = CD86 cell surface expression by flow cytometry after chemical stimulation; format: cell-based, human; settings: 24 h stimulation, frequency of CD86-positive cells, paired Student's t test
Method: Cell surface expression levels of CD86 were monitored after stimulation with chemicals for 24 h. FIG. 2A). Chemical-induced upregulation of CD86, in terms of changes in frequency of positive cells, were determined by flow cytometry, as exemplified by the comparison of 2-aminophenol-stimulated cells (right dotplot) and unstimulated controls (left dotplot). Results are shown from one representative experiment out of three. Gates were set to exclude debris and dead cells, and quadrants were established by comparing with relevant isotype controls. FIG. 2B) Compilation of frequencies of CD86-positive cells after 24 h of stimulation. Statistical analysis was performed using paired Student's t test. *p<0.05, # p<0.01. NA, not analysed.
CD86 is the most extensively studied biomarker for sensitization to date, in cell-systems such as monocyte derived dendritic cells (MoDCs) or dendritic cell-like human cell lines and their progenitors, such as THP-1, U-937 and KG-1. Thus, as a reference, cell surface expression of CD86 was measured with flow cytometry after 24h stimulation with 20 sensitizers and 20 non-sensitizers, as well as with vehicle controls (Table 1). […]. […] Consequently, CD86 cannot classify skin sensitizers, using a cell based system such as MUTZ-3.
The human myeloid leukaemia-derived cell line MUTZ-3 (DSMZ, Braunschweig, Germany) was maintained in a-MEM (Thermo Scientific Hyclone, Logan, Utah) supplemented with 20% (volume/volume) fetal calf serum (Invitrogen, Carlsbad, Calif.) and 40 ng/ml rhGM-CSF (Bayer HealthCare Pharmaceuticals, Seattle, Wash.), as described. Prior to each experiment, the cells were immunophenotyped using flow cytometry as a quality control. Cells were seeded in 6-well plates at 200.000 cells/ml. Stock solutions of each compound was prepared in either DMSO or distilled water, and were subsequently diluted so the in-well concentrations corresponded to the Rv90 value, and in-well concentrations of DMSO were 0.1%. Cells were incubated for 24h at 37° C. and 5% CO2. Thereafter, cells were harvested and analysed with flow cytometry. In parallel, harvested cells were lysed in TRIzol reagent (Invitrogen) and stored at −20° C. until RNA extraction. Stimulations with chemicals were performed in three individual experiments, so that triplicates samples were obtained.
All cell surface staining and washing steps was performed in PBS containing 1% BSA (w/v). Cells were incubated with specific mouse mAbs for 15 min at 4° C. The following mAbs were used for flow cytometry: FITC-conjugated CD1a (DakoCytomation, Glostrup, Denmark), CD34, CD86, and HLA-DR (BD Biosciences), PE-conjugated CD14 (DakoCytomation), CD54 and CD80 (BD Biosciences). Mouse IgG1, conjugated to FITC or PE were used as isotype controls and PI was used to assess cell viability (BD Biosciences). FACSDiva software was used for data acquisition with FACSCanto II instrument (BD Bioscience). 10,000 events were acquired and gates were set based on light scatter properties to exclude debris and nonviable cells. Further data analysis was performed using FCS Express V3 (De Novo Software, Los Angeles, Calif.).

MUTZ-3 cells [3] = experiment: transcriptional profiling (Affymetrix Human Gene 1.0 ST arrays) with PCA of chemically stimulated cells; format: cell-based
Method: The genomic expression arrays were used to test 20 sensitizers and 20 non-sensitizers, in triplicates, and vehicle controls such as DMSO and distilled water, the latter in twelve replicates.
The human myeloid leukaemia-derived cell line MUTZ-3 (DSMZ, Braunschweig, Germany) was maintained in a-MEM (Thermo Scientific Hyclone, Logan, Utah) supplemented with 20% (volume/volume) fetal calf serum (Invitrogen, Carlsbad, Calif.) and 40 ng/ml rhGM-CSF (Bayer HealthCare Pharmaceuticals, Seattle, Wash.), as described [10]. Prior to each experiment, the cells were immunophenotyped using flow cytometry as a quality control. Cells were seeded in 6-well plates at 200.000 cells/ml. Stock solutions of each compound was prepared in either DMSO or distilled water, and were subsequently diluted so the in-well concentrations corresponded to the Rv90 value, and in-well concentrations of DMSO were 0.1%. Cells were incubated for 24h at 37° C. and 5% CO2. Thereafter, cells were harvested and analysed with flow cytometry. In parallel, harvested cells were lysed in TRIzol reagent (Invitrogen) and stored at −20° C. until RNA extraction. Stimulations with chemicals were performed in three individual experiments, so that triplicates samples were obtained.
RNA isolation and gene chip hybridization was performed as described [22]. […] The preparation of labeled sense DNA was performed according to Affymetrix GeneChip Whole Transcript (WT) Sense Target Labeling Assay (100 ng Total RNA Labeling Protocol) using the recommended kits and controls (Affymetrix, Santa Clara, Calif.). Hybridization, washing and scanning of the Human Gene 1.0 ST Arrays were performed according to the manufacturer's protocol (Affymetrix).
The microarray data were normalised and quality checked with the RMA algorithm, using Affymetrix Expression Console (Affymetrix).

Max solubility in medium = settings: vehicle DMSO or water
human [4] = settings: in vivo; cited from earlier work
human [5] = settings: in vivo; cited from earlier work; remark: listed apart in the source
physchem = settings: plasma or biological fluid, kinetic from dmso stock
[6] = sensitizing potency category based on murine LLNA classification
[7] = concentration yielding 90% relative viability, PI staining
[8] = 24 h stimulation, one or more replicate

| Structure (SMILES) | Potency [1, 6] | CD86 cell surface expression (CD86) | PCA grouping, 1137 genes (comparing the different stimulations), FIG. 3D (MUTZ-3 cells [3]; 24 h stimulation, triplicates) | PCA grouping, 1010 transcripts (sensitizing vs. non-sensitizing ANOVA), FIG. 3B (MUTZ-3 cells [3]; [8]) | also measured |
| --- | --- | --- | --- | --- | --- |
| O=[N+]([O-])c1ccc(Cl)c([N+](=O)[O-])c1 [2,4-Dinitrochlorobenzene] | Extreme [15] | significantly up-regulated | replicates that group together, separate from the negative group |  | Rv90 (MUTZ-3 cells [2]; [7]): 4 µM |
| Nc1ccccc1O [2-Aminophenol] | Strong [27] | significantly up-regulated |  |  | Rv90 (MUTZ-3 cells [2]; [7]): 100 µM; PCA grouping, 1137 genes (comparing the different stimulations), FIG. 3D (MUTZ-3 cells [3]): replicates that group together, separate from the negative group |
| C=CC(=O)OCCO [2-Hydroxyethyl acrylate] |  | significantly up-regulated | replicates that group together, separate from the negative group |  | Rv90 (MUTZ-3 cells [2]; [7]): 100 µM |
| Sc1nc2ccccc2s1 [2-Mercaptobenzothiazole] | Moderate [27] | significantly up-regulated | replicates that group together, separate from the negative group |  |  |
| Nc1ccc(N)c([N+](=O)[O-])c1 [2-nitro-1,4-Phenylendiamine] |  | significantly up-regulated | replicates that group together, separate from the negative group |  |  |
| O=Cc1ccccc1 [Benzaldehyde] |  |  |  |  | Max solubility (Max solubility in medium): 250 µM |
| O=CC=Cc1ccccc1 [Cinnamaldehyde] |  | significantly up-regulated |  |  | HPTA (human [4]): +; Rv90 (MUTZ-3 cells [2]; human): 120 µM; HMT (human [5]): + |
| OC/C=C/c1ccccc1 [Cinnamic alcohol] | Weak [27] |  | replicates that group together, separate from the negative group |  |  |
| NCCN [Ethylendiamine] | Moderate [14] |  |  | group together with the control group |  |
| C=CCc1ccc(O)c(OC)c1 [Eugenol] | Weak [28] |  |  | group together with the control group | Rv90 (MUTZ-3 cells [2]; human): 300 µM |
| C=O [Formaldehyde] |  |  |  |  | Potency ([1]; mouse, in vivo): Strong [15]; Rv90 (MUTZ-3 cells [2]; human): 80 µM |
| O=CC=O [Glyoxal] |  |  |  | group together with the control group | Potency ([1]; mouse, in vivo): Moderate [27]; Rv90 (MUTZ-3 cells [2]; [7]): 300 µM |
| CCCCCCC(C=O)=Cc1ccccc1 [Hexylcinnamic aldehyde] | Moderate [15] |  |  | group together with the control group |  |
| CC=Cc1ccc(O)c(OC)c1 [Isoeugenol] | Moderate [28] |  |  | group together with the control group | Rv90 (MUTZ-3 cells [2]; human): 300 µM |
| CCCCCCCC(=O)O [Octanoic acid] |  |  |  | tend to group with the sensitizers |  |
| CCO/C=C1\N=C(c2ccccc2)OC1=O [Oxazolone] |  |  |  |  | Potency ([1]; mouse, in vivo): Extreme [15] |
| CC1(C)S[C@@H]2[C@H](NC(=O)Cc3ccccc3)C(=O)N2[C@H]1C(=O)O [Penicillin G] | Weak [28] |  |  | group together with the control group |  |
| Oc1ccccc1 [Phenol] |  |  |  |  | PCA grouping, 1010 transcripts (sensitizing vs. non-sensitizing ANOVA), FIG. 3B (MUTZ-3 cells [3]): tend to group with the sensitizers |
| [K+].[K+].[O]=[Cr](=[O])([O-])[O][Cr](=[O])(=[O])[O-] [Potassium dichromate] | Extreme [14] |  |  |  | PCA grouping, 1137 genes (comparing the different stimulations), FIG. 3D (MUTZ-3 cells [3]): discrete profile |
| Oc1cccc(O)c1 [Resorcinol] | Moderate [29] | significantly up-regulated | replicates that group together, separate from the negative group | group together with the control group |  |
| CCCCCCCCCCCCOS(=O)(=O)[O-].[Na+] [Sodium dodecyl sulphate] |  |  |  |  | Rv90 (MUTZ-3 cells [2]; [7]): 200 µM |
| CCCCCCCC/C=C\CCCCCCCC(=O)OCCOCC(OCCO)C1OCC(OCCO)C1OCCO (centres unmarked) [Tween 80] |  |  |  | tend to group with the sensitizers |  |
| Nc1ccc(N)cc1 [p-Phenylendiamine] | Strong [28] | significantly up-regulated | replicates that group together, separate from the negative group |  | Rv90 (MUTZ-3 cells [2]; [7]): 75 µM; solubility (physchem): 566 µM (≈ 61.2 µg/mL) |

Reference: patent US20170218449A1, “ANALYTICAL METHODS AND ARRAYS FOR USE IN THE SAME” (SENZAGEN AB, priority 2010, published 2017)
